By Ki is commonly meant the dissociation constant of the complex between target and ligand, obtained from inhibition or displacement. A low value points to higher affinity.

The target of experiment [1] is Kappa-type opioid receptor (Homo sapiens, UniProt P41145). The experiment can be described thus: The compound was tested for binding affinity against Opioid receptor kappa 1 by using [3H]Diprenorphine as a radioligand.
The target of experiment [2] is Delta-type opioid receptor (Homo sapiens, UniProt P41143). As to the kind of experiment: The compound was tested for binding affinity against Opioid receptor delta 1 by using [3H]- DPDPE as a radioligand.
Sequence of Delta-type opioid receptor (P41143 whole entry): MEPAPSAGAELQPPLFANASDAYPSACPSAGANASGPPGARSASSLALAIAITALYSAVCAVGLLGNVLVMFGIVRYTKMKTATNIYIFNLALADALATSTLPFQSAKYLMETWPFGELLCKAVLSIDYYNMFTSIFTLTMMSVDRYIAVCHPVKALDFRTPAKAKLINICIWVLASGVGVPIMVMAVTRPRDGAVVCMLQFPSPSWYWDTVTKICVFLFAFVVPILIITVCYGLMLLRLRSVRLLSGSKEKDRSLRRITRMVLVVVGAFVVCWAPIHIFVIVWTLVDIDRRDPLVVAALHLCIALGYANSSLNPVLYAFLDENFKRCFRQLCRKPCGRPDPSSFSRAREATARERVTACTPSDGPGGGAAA
A further experiment has as its target Mu-type opioid receptor (Homo sapiens, UniProt P35372). As to the kind of experiment: The compound was tested for binding affinity against Opioid receptor mu 1 by using [3H]DAMGO as a radioligand.

Square brackets hold non-standard residues; d marks the D form. Peptide text beside a SMILES is read from it.

Sequence of Mu-type opioid receptor (P35372 whole entry): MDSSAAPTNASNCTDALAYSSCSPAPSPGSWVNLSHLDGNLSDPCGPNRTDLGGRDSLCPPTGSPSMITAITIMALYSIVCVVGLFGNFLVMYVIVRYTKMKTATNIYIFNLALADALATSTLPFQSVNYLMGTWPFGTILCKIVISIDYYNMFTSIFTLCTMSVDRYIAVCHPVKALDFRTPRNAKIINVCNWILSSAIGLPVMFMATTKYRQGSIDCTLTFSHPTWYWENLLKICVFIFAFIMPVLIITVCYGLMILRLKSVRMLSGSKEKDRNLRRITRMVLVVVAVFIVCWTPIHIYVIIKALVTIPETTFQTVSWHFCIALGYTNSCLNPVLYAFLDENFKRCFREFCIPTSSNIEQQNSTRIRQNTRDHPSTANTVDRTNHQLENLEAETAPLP
Sequence of Kappa-type opioid receptor (P41145 whole entry): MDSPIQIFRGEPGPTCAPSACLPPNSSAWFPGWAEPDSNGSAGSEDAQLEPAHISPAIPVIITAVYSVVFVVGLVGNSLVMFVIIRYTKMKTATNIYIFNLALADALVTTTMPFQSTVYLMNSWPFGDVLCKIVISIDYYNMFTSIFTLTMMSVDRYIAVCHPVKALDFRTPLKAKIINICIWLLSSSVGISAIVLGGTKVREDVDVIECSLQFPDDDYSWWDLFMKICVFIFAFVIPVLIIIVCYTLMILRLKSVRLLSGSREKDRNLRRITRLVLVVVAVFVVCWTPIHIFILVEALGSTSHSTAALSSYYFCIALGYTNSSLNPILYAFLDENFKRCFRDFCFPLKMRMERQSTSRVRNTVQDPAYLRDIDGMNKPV

With `CC(C)C[C@H](NC(=O)[C@H](Cc1ccccc1)NC(=O)CNC(=O)CNC(=O)[C@@H](N)Cc1ccc(O)cc1)C(=O)N[C@@H](CCCN=C(N)N)C(=O)N[C@@H](CCCN=C(N)N)C(=O)N[C@H](C)C(=O)N[C@@H](CCCN=C(N)N)C(=O)N1CCC[C@H]1C(=O)N[C@@H](CCCCN)C(N)=O`, the figures for the Ki (in experiment [1]; in experiment [2]; at Mu-type opioid receptor) were 0.19 nM, 12.2 nM and 1.97 nM, respectively.
The corresponding values for `CC(=O)N[C@@H](Cc1ccc(O)cc1)C(=O)N[C@@H](CCCCN)C(=O)N[C@@H](Cc1c[nH]c2ccccc12)C(=O)N[C@@H](Cc1c[nH]c2ccccc12)C(N)=O` (Ac-YKWW-NH2) are 1370 nM, 3480 nM and 3590 nM.
The corresponding values for `CC(=O)N[C@@H](Cc1ccc(O)cc1)C(=O)N[C@@H](CCCCN)C(=O)N[C@@H](Cc1c[nH]c2ccccc12)C(=O)N[C@@H](Cc1c[nH]c2ccccc12)C(=O)N[C@@H](CC(C)C)C(=O)N[C@@H](CCCN=C(N)N)C(=O)N[C@@H](CCCN=C(N)N)C(=O)N[C@H](C)C(=O)N[C@@H](CCCN=C(N)N)C(=O)N1CCC[C@H]1C(=O)N[C@@H](CCCCN)C(N)=O` (Ac-YKWWLRR[dA]RPK-NH2) are 19.8 nM, 5320 nM and 251 nM.
